What is called Kd is the equilibrium constant for the complex coming apart. Lower therefore signals a tighter complex.

1 molecule from paper PMC7875539 (Science Advances, 2021) can be followed below.

Conditions in all cases: 100 mM KCl, 5 mM MgCl2, 20 mM Hepes pH 7.5, 25 °C; CBS domain nucleotide site
For test [1], the target named is TpCorC CBS domain (Thermus parvatiensis, UniProt A0A109QFA5, Y255A).
The target of test [2] is TpCorC CBS domain (Thermus parvatiensis, UniProt A0A109QFA5).
The target in test [3] is TpCorC CBS domain (Thermus parvatiensis, UniProt A0A109QFA5, T336I).
Chain of TpCorC CBS domain (Thermus parvatiensis, UniProt A0A109QFA5, T336I) (A0A109QFA5 202-361 T336I limits assumed): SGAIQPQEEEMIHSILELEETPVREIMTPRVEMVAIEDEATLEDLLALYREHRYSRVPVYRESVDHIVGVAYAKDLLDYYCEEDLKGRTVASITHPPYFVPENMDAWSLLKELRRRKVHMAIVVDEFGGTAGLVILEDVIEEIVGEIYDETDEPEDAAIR

Chain of TpCorC CBS domain (Thermus parvatiensis, UniProt A0A109QFA5, Y255A) (A0A109QFA5 202-361 Y255A limits assumed): as the sequence (A0A109QFA5 202-361 T336I limits assumed) above, with Y54A, I135T counted along it
Chain of TpCorC CBS domain (Thermus parvatiensis, UniProt A0A109QFA5) (A0A109QFA5 202-361 limits assumed): as the sequence (A0A109QFA5 202-361 T336I limits assumed) above, with I135T counted along it

On to `Nc1ncnc2c1ncn2[C@@H]1O[C@H](COP(=O)(O)OP(=O)(O)OP(=O)(O)O)[C@@H](O)[C@H]1O` [ATP], for which the Kd at TpCorC CBS domain [1] came out at 2.8 µM; on TpCorC CBS domain [2], 0.46 µM; at TpCorC CBS domain [3] it was 9.4 µM.
